The source of these data is patent publication US20130324493A1, “COMPOSITIONS COMPRISING NINGNANMYCIN AND USES THEREFOR” (North Carolina State University, priority 2012, published 2013).

The test system of data set [1] is Colletotrichum cereale. Kind of data set: In vitro sensitivity assay (radial growth on fungicide-amended PDA). The format is cell-based. The procedure:
(§1) Three isolates of S. homoeocarpa and two isolates of C. cereale were selected to evaluate ningnanmycin (Ningnanmycin 10WP, Deqiang Biological Co., LTD. Harbin, Helongjiang, China) in vitro activities using 5 three-fold dilutions from 0.81 to 0.01 μg a.i./ml. […] Based on preliminary experiments, five dilutions of triticonazole were used, ranging from 0.81 to 0.01 μg a.i/ml for isolates of S. homoeocarpa and from 6.25 to 0.01 μg a.i./ml for isolates of C. cereale. All isolates were prepared for long-term storage on pieces of dried filter paper maintained at −80° C. Filter paper sections containing each isolate were removed from −80° C. storage and placed on PDA amended with 0.05 μg/ml each of chloramphenicol, streptomycin, and tetracycline (PDA+++). After 3 days, mycelium-containing plugs (1×1 cm) were transferred to water agar for another 2 days. Then, water agar plugs (0.45 cm diameter) were cut from the periphery of the colony using a cork borer and placed on the center of Petri dishes containing non-amended PDA and PDA amended with the serial concentrations of each fungicide with three replicates per isolate. Radial growth was measured after three days (72 h) incubation at room temperature for isolates of S. homoeocarpa and seven days for isolates of C. cereale. Relative Growth (RG) was calculated by dividing colony diameter on amended PDA by that on the non-amended PDA. EC50 values were then calculated using the method described by Secor et al. (Fungicide resistance assays for fungal plant pathogens. Methods Mol Biol. 835:385-392, 2012). The in vitro sensitivity assay repeated twice and EC50 value of each isolates was determined as the mean of EC50 values from two assays.

Data set [2] relates to Sclerotinia homoeocarpa. Described as above. The class given is cell-based. Conditions: Clarireedia homoeocarpa. The procedure:
as §1

Data set [3] has as its system anthracnose (C. cereale). Nature of the data set: Field efficacy test, control of anthracnose on putting green turf. Conditions: Trinity 1.69SC 0.32 ml/m^2, 14 d interval; for Turf quality: 1-to-9 scale (9 = best), anthracnose trial. The format is in vivo, 'Dominant Plus' creeping bentgrass.
The test system of data set [4] is honey bee. Conditions: cited from earlier work.
In data set [5] the test system is rat. Conditions: Trinity 1.69SC MSDS; cited from earlier work.
In data set [6] the test system is rat. As to conditions: cited from earlier work.
The subject of data set [7] is rabbit. As to conditions: in vivo; cited from earlier work.
Data set [8] concerns rabbit. As to conditions: in vivo; cited from earlier work. The source holds these as a separate data set.
Data set [9] concerns guinea pig. Conditions: in vivo; cited from earlier work.
Data set [10] deals with Oncorhynchus mykiss. Conditions: cited from earlier work.
The test system of data set [11] is Lepomis macrochirus. As to conditions: cited from earlier work.
In data set [12] the test system is green algae. As to conditions: in vivo; cited from earlier work.

In brackets after ≈: the same amount, converted by molar mass. Where two headings read alike, the source gives them in different places.

A word on the EC50: it is the concentration at which the effect is half-maximal. With `CC1(C)CCC(=Cc2ccc(Cl)cc2)C1(O)Cn1cncn1` (stereo not shown) [triticonazole, reference compound], the EC50 in data set [1] (168 h, isolate ABR1, radial growth after seven days, mean of two assays, read-out: EC50) was 1.24 µg/mL (≈ 3.9 µM); in [1] (168 h, isolate ABR12, radial growth after seven days, mean of two assays, read-out: EC50), 0.72 µg/mL (≈ 2.27 µM); in data set [1] (mean of two isolates, read-out: mean EC50), 0.98 µg/mL (≈ 3.08 µM); in data set [2] (72 h, isolate 761SHME, radial growth after 72 h, mean of two assays, Ningnanmycin 10WP / technical triticonazole, μg a.i./ml, read-out: EC50), 0.05 µg/mL (≈ 0.157 µM); in [2] (72 h, isolate LWC 27, radial growth after 72 h, mean of two assays, read-out: EC50), 0.06 µg/mL (≈ 0.189 µM); in [2] (72 h, isolate PST4, radial growth after 72 h, mean of two assays, read-out: EC50), 0.03 µg/mL (≈ 0.0944 µM). Moreover, the EC50 in data set [2] (mean of three isolates, read-out: mean EC50) came to 0.05 µg/mL (≈ 0.157 µM). Further, the Turf quality in data set [3] (Aug. 8, 2010) is recorded as 5; in data set [3] (Aug. 15, 2010) it was 5. For the same compound, the “Anthracnose severity (%)” value was 17% in [3] (Aug. 1, 2011); 3% in data set [3] (Aug. 8, 2011); 12% in [3] (Aug. 15, 2011); 16% in [3] (Jul. 25, 2011). The “Non-mammals, honey bee” value in [4] was 1.87 μg/bee. Also, the “Acute toxicity Oral LD50” value in data set [5] was >5,000 mg/kg. For the same compound, the “Acute toxicity Dermal LD50” value in data set [6] was >2,000/mg/kg. Besides, in data set [7], the Irritation to eye entry is reported as “slightly irritating”. Besides, in data set [8], the Irritation to skin result is on record as “moderately irritating”. The Sensitization entry in [9] is listed as “no”. Moreover, the “Fish LC50 (96 h)” value in [10] was over 3.6 µg/mL; in data set [11], >8.9 mg/L (Lepomis. In addition, the “Aquatic plants EC50” value in [12] is recorded as >1 mg/L (96 h).
